Measurements taken from patent publication US20230322715A1, “BROAD SPECTRUM ANTI-CANCER COMPOUNDS” (The Regents of the University of California, priority 2019, published 2023).
Where two headings read alike, the source gives them in different places. One block for each compound: values may come before it.

Experiments:
[1] = elogD / log D determination
ALKBH5 = ALKBH5 (Homo sapiens (Human), UniProt Q6P6C2); assay: Fluorescence enzymatic inhibition assay (m6A7-Broccoli RNA / DFHBI-1T) against ALKBH5; type: biochemical
ALKBH5, sequence (Q6P6C2 whole entry): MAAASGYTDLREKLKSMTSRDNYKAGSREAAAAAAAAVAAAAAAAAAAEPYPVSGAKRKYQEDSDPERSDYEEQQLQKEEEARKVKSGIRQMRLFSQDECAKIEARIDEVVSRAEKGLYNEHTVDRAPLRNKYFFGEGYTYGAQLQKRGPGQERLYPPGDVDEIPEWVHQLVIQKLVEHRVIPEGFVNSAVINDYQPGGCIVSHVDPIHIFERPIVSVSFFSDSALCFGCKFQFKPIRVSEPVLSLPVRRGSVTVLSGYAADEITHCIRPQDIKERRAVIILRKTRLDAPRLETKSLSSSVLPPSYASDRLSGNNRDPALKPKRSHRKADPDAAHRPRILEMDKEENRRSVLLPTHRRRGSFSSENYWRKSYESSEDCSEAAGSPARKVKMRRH
Description: (§1) Inhibitors were added in concentrations ranging from 0.008-40 μM; all inhibitors were dissolved in DMSO and added to a final concentration of 0.2% DMSO. […] After incubation at room temperature for 2 hours, the plates were left at 4° C. overnight (16 hours) to allow DFHBI-1T to bind to A7-Broccoli RNA. […] Sigmoidal dose-response curves were fitted in GraphPad Prism 6. All assays were performed in triplicate, with additional repetitions added as necessary.

FTO = FTO (Homo sapiens (Human), UniProt Q9C0B1); assay: Fluorescence enzymatic inhibition assay (m6A7-Broccoli RNA / DFHBI-1T) against FTO; type: biochemical
FTO, sequence (Q9C0B1 whole entry): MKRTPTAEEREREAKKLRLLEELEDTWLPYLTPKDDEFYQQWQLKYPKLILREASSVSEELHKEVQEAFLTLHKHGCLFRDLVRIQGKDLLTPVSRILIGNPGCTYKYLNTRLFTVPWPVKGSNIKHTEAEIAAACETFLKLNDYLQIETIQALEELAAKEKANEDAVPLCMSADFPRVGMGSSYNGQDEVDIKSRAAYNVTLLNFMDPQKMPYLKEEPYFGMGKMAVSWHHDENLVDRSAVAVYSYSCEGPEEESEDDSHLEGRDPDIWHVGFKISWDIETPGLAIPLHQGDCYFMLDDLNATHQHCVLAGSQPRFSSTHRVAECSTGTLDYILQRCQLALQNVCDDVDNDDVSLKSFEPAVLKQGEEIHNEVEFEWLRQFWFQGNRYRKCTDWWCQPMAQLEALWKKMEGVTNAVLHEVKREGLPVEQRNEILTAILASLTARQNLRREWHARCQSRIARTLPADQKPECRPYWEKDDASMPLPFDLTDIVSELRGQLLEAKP
Description: In order to determine their efficacy as FTO inhibitors, the compounds were screened by a fluorescence enzymatic inhibition assay developed previously by the Jaffrey lab.^44 Briefly, a nonfluorescent methylated RNA substrate termed “m6A7-Broccoli” is incubated with FTO in the presence of 2-oxoglutarate (300 μM), (NH4)2Fe(SO4)2·6H2O (300 μM), and L-ascorbate (2 mM) for 2 hours at room temperature in reaction buffer (50 mM NaHEPES, pH 6).
as §1

YTHDF2 = YTHDF2 (Homo sapiens (Human), UniProt Q9Y5A9); assay: In vitro FRET assay for binding affinities of YTH inhibitors, YTHDF2
YTHDF2, sequence (Q9Y5A9 whole entry): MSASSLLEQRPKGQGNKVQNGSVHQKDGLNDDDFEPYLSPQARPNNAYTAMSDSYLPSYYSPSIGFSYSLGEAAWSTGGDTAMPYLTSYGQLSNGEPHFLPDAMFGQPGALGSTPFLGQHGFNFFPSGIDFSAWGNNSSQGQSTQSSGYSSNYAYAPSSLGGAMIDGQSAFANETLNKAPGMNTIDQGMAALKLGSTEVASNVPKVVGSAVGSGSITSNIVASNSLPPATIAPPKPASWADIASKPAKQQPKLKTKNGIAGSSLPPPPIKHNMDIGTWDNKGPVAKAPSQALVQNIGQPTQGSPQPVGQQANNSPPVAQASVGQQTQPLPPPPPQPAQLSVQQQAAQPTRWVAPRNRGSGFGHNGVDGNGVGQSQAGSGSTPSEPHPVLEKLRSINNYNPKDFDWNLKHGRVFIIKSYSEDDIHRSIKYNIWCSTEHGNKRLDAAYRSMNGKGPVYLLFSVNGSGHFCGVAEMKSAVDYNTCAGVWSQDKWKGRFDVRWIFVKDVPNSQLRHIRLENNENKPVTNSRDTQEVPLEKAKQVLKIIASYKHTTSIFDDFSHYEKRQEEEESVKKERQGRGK
Excerpt: FIG. 8-2 depicts possible design and synthesis of compound libraries. In Vitro FRET assay development could yield a high throughput FRET assay to determine binding affinities for potential YHT inhibitors against YTHDF1, YTHDF2, YTHDF3, or other similar proteins.

[2] = m6A7-Broccoli fluorescence assay, 0.250 μM ALKBH5, read-out: Enzymatic IC50 ALKBH5
[3] = m6A7-Broccoli fluorescence assay, 0.250 μM FTO, inhibitor up to 40 μM, triplicate, read-out: Enzymatic IC50 FTO
[4] = Table 700 compounds, read-out: Enzymatic IC50 ALKBH5
[5] = Table 700 compounds, read-out: Enzymatic IC50 FTO
[6] = ALK series, permeability data and IC50 tables, read-out: Enzymatic IC50 ALKBH5

elogD ([1]; Table 800 compounds): 0.88
IC50 (ALKBH5; Table 800 compounds, read-out: ALKBH5 IC50): 0.11 µM
IC50 (FTO; Table 800 compounds, read-out: FTO IC50): > 40 µM
Structure (SMILES): O=S(=O)(Nc1cc(Cl)ccc1O)c1ccc(OC(F)(F)F)cc1 [TR-ALKBH5-29]

Structure (SMILES): Fc1cccc2[nH]cc(CNCC3(N4CCCC4)COC3)c12 [TR-FTO-17]
IC50 (ALKBH5; [2]): 2.5 µM
IC50 (FTO; [3]): 1.3 µM

Ki (YTHDF2; Ki values for YTH library against YTHDF2, read-out: Ki): 266 ± 92 pM
Ki (YTHDF2; read-out: Ki (pM) YTHDF2): 266 ± 92 pM
Ki (YTHDF2; read-out: Ki YTHDF2): 266 ± 92 pM
Structure (SMILES): CN(C)Cc1ccc(NCc2ccc(C(F)(F)F)cc2)nc1 [TR-YTH-20]

IC50 (FTO; read-out: Enzymatic IC50 FTO): > 40 µM
Structure (SMILES): COc1ccccc1C(=O)N1CC(Oc2ccccc2)CC1C(=O)Nc1cccc(F)c1O (stereo not shown) [TR-FTO 2-09]

elogD [1]: 0.55
IC50 (ALKBH5; [2]): 5.9 µM
Structure (SMILES): c1cc2c(cc1CNCC1(N3CCCC3)COC1)OCCO2 [TR-FTO-27]

Structure (SMILES): CC1(C)S[C@@H]2[C@H](N)C(=O)N2[C@H]1C(=O)O [ALK-07]
elogD ([1]; Table 700 compounds): 0.95
IC50 (ALKBH5; [4]): 10 ± 2.8 µM
IC50 (FTO; [5]): > 40 µM

chromatographic logD [1]: 0.79
Structure (SMILES): O=C(C1CC1)N1CCN(S(=O)(=O)c2ccc(OC(F)(F)F)cc2)CC1 [TR-ALKBH5-41]

Structure (SMILES): Cc1ccc2c(CNCC3(N4CCCC4)COC3)c[nH]c2c1 [TR-FTO-42]
IC50 (ALKBH5; [2]): 13.4 µM
IC50 (FTO; [3]): 3 µM

elogD [1]: 0.40
IC50 (ALKBH5; [2]): > 40 µM
Structure (SMILES): COc1cccc2c(CNCC3(N4CCCC4)COC3)c[nH]c12 [TR-FTO-14]

IC50 (ALKBH5; [6]): 24 ± 4.2 µM
Structure (SMILES): COC(=O)C1COC(c2cc(C(C)(C)C)ccc2O)N1 (stereo not shown) [ALK-19]

elogD [1]: 1.29
IC50 (ALKBH5; [2]): 3 µM
Structure (SMILES): FC(F)(F)Sc1ccc(CNCC2(N3CCCC3)COC2)cc1 [TR-FTO-40]

Structure (SMILES): FC1CCN(C2(CNCc3c[nH]c4ccccc34)COC2)C1 (stereo not shown) [TR-FTO-47]
IC50 (ALKBH5; [2]): > 40 µM
IC50 (FTO; [3]): 2.1 µM

elogD [1]: 1.03
IC50 (ALKBH5; [2]): 30.5 µM
Structure (SMILES): Fc1ccc2[nH]cc(CNCC3(N4CCC(F)C4)COC3)c2c1 (stereo not shown) [TR-FTO-45]

elogD ([1]; Table 700 compounds): 1.44
IC50 (ALKBH5; [6]): 8.2 ± 2.3 µM
IC50 (ALKBH5; [4]): 8.2 ± 2.3 µM
IC50 (FTO; [5]): > 40 µM
Structure (SMILES): COC(=O)C1COC(c2ccccc2O)N1 (stereo not shown) [ALK-16]

Structure (SMILES): COc1ncc(-c2ccc3nc(N)sc3c2)cn1 [FTO-4, 6-(2-methoxypyrimidin-5-yl)benzo[d]thiazol-2-amine]
IC50 (ALKBH5; [2]): 39.4 ± 3.1 µM
IC50 (FTO; [3]): 3.39 ± 2.5 µM

IC50 (FTO; read-out: Enzymatic IC50 FTO): 0.19 ± 0.03 µM
Structure (SMILES): COc1ccccc1C(=O)N1CC(Oc2ccccc2)CC1C(=O)Nc1ccc(C)c(C)c1 (stereo not shown) [TR-FTO 2-02]

IC50 (FTO; read-out: Enzymatic IC50 FTO): 12.5 ± 2.7 µM
Structure (SMILES): COc1ccccc1C(=O)N1CC(Oc2ccccc2)CC1C(=O)NCc1ccccn1 (stereo not shown) [TR-FTO 2-06]

elogD ([1]; Table 700 compounds): 1.17
IC50 (ALKBH5; [4]): 0.9 ± 0.2 µM
IC50 (FTO; [5]): > 40 µM
Structure (SMILES): COC(=O)C1COC(c2ccc(-c3ccccc3)s2)N1 (stereo not shown) [ALK-25]

Structure (SMILES): FC(F)(F)c1cccc(CNCC2(N3CCCC3)COC2)c1 [TR-FTO-02]
elogD [1]: 1.02
IC50 (ALKBH5; [2]): 19.5 µM
IC50 (FTO; [3]): 4.3 µM

elogD ([1]; Table 800 compounds): 1.24
Structure (SMILES): O=S(=O)(Nc1ccc(Cl)c(Cl)c1)c1ccc(OC(F)(F)F)cc1 [TR-ALKBH5-33]

IC50 (ALKBH5; [6]): 18.2 µM
Structure (SMILES): COC(=O)C1COC(c2ccc(OC)cc2O)N1 (stereo not shown) [ALK-17]

elogD [1]: 1.14
IC50 (ALKBH5; [2]): 55 µM
Structure (SMILES): c1ccc(-c2ccc(CNCC3(N4CCCC4)COC3)o2)cc1 [TR-FTO-35]

elogD [1]: 1.57
IC50 (ALKBH5; [2]): 3.4 µM
Structure (SMILES): c1ccc(-c2ccc(CNCC3(N4CCCC4)COC3)s2)cc1 [TR-FTO-38]

Structure (SMILES): Cc1ccc2[nH]cc(CNCC3(N4CCCC4)COC3)c2c1 [TR-FTO-09]
IC50 (ALKBH5; [2]): > 40 µM

Structure (SMILES): Fc1cccc2c(CNCC3(N4CCCC4)COC3)c[nH]c12 [TR-FTO-16]
IC50 (ALKBH5; [2]): 0.87 µM
IC50 (FTO; [3]): 2.2 µM

IC50 (FTO; read-out: Enzymatic IC50 FTO): 8.31 ± 2.07 µM
Structure (SMILES): COc1ccccc1C(=O)N1CC(Oc2ccccc2)CC1C(=O)Nc1ccc(C(C)=O)cc1 (stereo not shown) [TR-FTO 2-05]

IC50 (FTO; read-out: Enzymatic IC50 FTO): 6.67 ± 2.31 µM
Structure (SMILES): COc1ccc(CNC(=O)C2CC(Oc3ccccc3)CN2C(=O)c2ccccc2OC)c(OC)c1 (stereo not shown) [TR-FTO 2-04]

chromatographic logD [1]: 0.95
Structure (SMILES): Fc1ccc2c(CNCC3(N4CCC(F)C4)COC3)c[nH]c2c1 (stereo not shown) [TR-FTO-44]
